Here are results for one compound from patent US7858624B2, “Piperidine and morpholine renin inhibitors” (Vitae Pharmaceuticals, Inc., priority 2006, dated 2010).

This experiment concerns the target T1, trypsin-activated recombinant human renin (Homo sapiens, UniProt P00797).
T1 sequence (P00797 67-406): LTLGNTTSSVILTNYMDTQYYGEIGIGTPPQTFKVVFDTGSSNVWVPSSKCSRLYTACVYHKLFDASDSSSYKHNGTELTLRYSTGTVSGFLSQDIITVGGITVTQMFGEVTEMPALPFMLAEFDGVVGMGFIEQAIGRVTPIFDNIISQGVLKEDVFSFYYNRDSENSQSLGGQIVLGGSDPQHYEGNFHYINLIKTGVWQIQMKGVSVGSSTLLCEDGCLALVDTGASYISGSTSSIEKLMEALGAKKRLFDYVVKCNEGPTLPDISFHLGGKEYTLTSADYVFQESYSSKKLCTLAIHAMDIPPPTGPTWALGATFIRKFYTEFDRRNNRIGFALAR
As to the kind of experiment: In vitro IC50 for renin, fluorescence increase of internally quenched peptide substrate (protocol of Example 2). In kind it is biochemical. As to conditions: protocol described in Example 2; DABCYL/EDANS peptide substrate, pH 7.0, rt. The procedure:
The sequence of this peptide corresponds to the sequence of human angiotensinogen. The following test protocol is used: All reactions are carried out in a flat bottom white opaque microtiter plate. A 4 μL aliquot of 400 μM renin substrate (DABCYL-γ-Abu-Ile-His-Pro-Phe-His-Leu-Val-Ile-His-Thr-EDANS) in 192 μL assay buffer (50 mM BES, 150 mM NaCl, 0.25 mg/mL bovine serum albumin, pH7.0) is added to 4 μL of test compound in DMSO at various concentrations ranging from 10 μM to 1 nM final concentrations. Next, 100 μL of trypsin-activated recombinant human renin (final enzyme concentration of 0.2-2 nM) in assay buffer is added, and the solution is mixed by pipetting. The increase in fluorescence at 495 nm (excitation at 340 nm) is measured for 60-360 min at rt using a Perkin-Elmer Fusion microplate reader. The slope of a linear portion of the plot of fluorescence increase as a function of time is then determined, and the rate is used for calculating percent inhibition in relation to uninhibited control. […] The IC50 is defined as the concentration of a particular inhibitor that reduces the formation of product by 50% relative to a control sample containing no inhibitor. (Wang G. T. et al. Anal. Biochem. 1993, 210, 351; Nakamura, N. et al. J. Biochem. (Toko) 1991, 109, 741; Murakaini, K. et al. Anal Biochem. 1981, 110, 232).

With `CCCCNC(=O)C[C@H](O)[C@H](CC1CCCCC1)NC(=O)N1CCC[C@@H]([C@@H](OCCNC(=O)OC)c2cccc(Cl)c2)C1` [Example 1, methyl 2-((R)-((R)-1-((2S,3S)-5-(butylamino)-1-cyclohexyl-3-hydroxy-5-oxopentan-2-ylcarbamoyl)piperidin-3-yl)(3-chlorophenyl)methoxy)ethylcarbamate], the IC50 worked out at 113 nM.

As a reminder, the IC50 is the point on the concentration scale where inhibition reaches its midpoint.
